Measurements reported in patent US7674463B1, “Method of inhibiting angiogenesis by administration of a corticotropin releasing factor receptor 2 agonist” (Research Development Foundation, priority 1999, dated 2010).
“Also recorded” adds a separate entry of the source. No end group written: not given here.

Experiments:
mice = assay: hair growth over gel foam sponge implanted under shaved skin; type: in vivo; conditions: after five days
Text: Small regions area of mice were shaved over of their skin and gel foam sponges impregnated with bFGF and urocortin, various growth factors, and CRF antagonist astressin were surgically implanted under the shaved skin. […] Therefore, urocortin and bFGF stimulate rapid hair growth.

wild type mice = assay: cardiovascular response to intravenous infusion, wild type mice; type: in vivo
Text: (§1) The cardiovascular responses to intravenous infusion of urocortin and sodium nitroprusside, a vasodilator, were examined in mice (wild type: n 5; mutant: n=3) anesthetized with isofluorine. The arterial catheter for blood pressure recording was fabricated from a sterile PE-10 tubing softened and pulled to an outer diameter of ˜0.4 mm. The femoral artery was exposed, and the arterial catheter filled with heparin saline (500 U/ml) was implanted and secured with surgical threads and tissue glue (Vetbond). […] A second catheter was then implanted in the external jugular vein for intravenous infusion of drugs. Drug infusion was performed […] following completion of the cannulation procedure. The venous catheter was connected to a drug-filled syringe. Infusion was completed within 0.5-1.0 min. Both wild type and mutants received an identical dose of urocortin (0.1 μg in 200 μl of 0.9% saline) and saline (as a control).
(§2) The doses used were determined from preliminary experiments with reference to data obtained from corresponding studies in Sprague Dawley rats (2). In order to verify that the lack of cardiovascular response to the urocortin injection in mutants was not attributed to the loss of ability of the mice to vasodilate, the mutant mice also received a second infusion of sodium nitroprusside (0.8 μg in 100 μl of 0.9% saline) following recovery of arterial pressure from the urocortin infusion. The mean arterial pressure (MAP) was determined from the blood pressure tracings.

CRFR2 null mutant mice = assay: cardiovascular response to intravenous infusion, CRFR2 null mutant mice; type: in vivo; conditions: for arterial pressure response to urocortin: intravenous infusion
Text: as §1, §2

CRFR2 = conditions: urocortin versus CRF; cited from earlier work

Row | Substance | hair growth in shaved area above implanted sponge (mice) | depressor response (change in arterial pressure) (wild type mice; control mice, anesthetized, urocortin 0.1 μg intravenous infusion) [mm Hg] | persistence of the reduction in arterial pressure (recording period) (wild type mice; control mice, urocortin 0.1 μg intravenous infusion) [min] | mean arteriole pressure response to intravenous urocortin (wild type mice; wild type animals) | arterial pressure response to urocortin (CRFR2 null mutant mice) | arterial pressure response to urocortin (CRFR2 null mutant mice; listed as UCN) | reduction in arterial pressure, only 1 mutant mouse, transient (CRFR2 null mutant mice; urocortin 0.1 μg intravenous, likely attributable to injection pressure) [mmHg] | affinity for CRFR2 relative to CRF (CRFR2) [fold]
1 | astressin | Little hair growth | – | – | – | – | – | – | –
2 | urocortin (DNPSLSIDLTFHLLRTLLELARTQSQRERAEQNRIIFDSV; ends and bridges not checked; UniProt P55089 83-122, looked up) [a CRF-related peptide, thought to be the endogenous ligand for CRFR2] | – | −28.3±2.0 | 90 to 120 | dramatic decrease | no measurable responses; also recorded: no response | remarkable muted response | −3.5 | ~40
